According to patent US8415351B2 (priority 2007, dated 2013):

Columns and labels:
[1] = system: genotype 1b-Con1 subgenomic replicon cell line; test: microbe, parasite or virus in culture; assay type: cell-based, HCV; conditions: Hepatitis C virus, read-out: EC50 1b
[2] = system: genotype 1a-H77 subgenomic replicon cell line; test: microbe, parasite or virus in culture; assay type: cell-based, HCV; conditions: Hepatitis C virus, read-out: EC50 1a

With `COc1c(C=C(F)c2ccc(NS(C)(=O)=O)cc2)cc(N2CCC(=O)NC2=O)cc1C(C)(C)C` (racemic) [IA-L1-1.21, N-(4-(2-(3-tert-butyl-5-(2,4-dioxotetrahydropyrimidin-1(2H)-yl)-2-methoxyphenyl)-1-fluorovinyl)phenyl)methanesulfonamide] the EC50 [1] was < 10 nM and the EC50 [2] was < 10 nM.
`COc1c(/C=C/c2ccc(NS(C)(=O)=O)cc2CNCCC(C)C)cc(-n2ccc(=O)[nH]c2=O)cc1C(C)(C)C` [IB-L1-1.31, (E)-N-(4-(3-tert-butyl-5-(2,4-dioxo-3,4-dihydropyrimidin-1(2H)-yl)-2-methoxystyryl)-3-((isopentylamino)methyl)phenyl)methanesulfonamide] was tested, and the EC50 [1] was > 1000 nM and the EC50 [2] was > 1000 nM.
`COc1c(/C=C/c2ccc(NS(C)(=O)=O)cc2C(=O)N(C)C2CCS(=O)(=O)C2)cc(-n2ccc(=O)[nH]c2=O)cc1C(C)(C)C` (stereo not shown) [IB-L1-1.18, 2-{(E)-2-[3-tert-butyl-5-(2,4-dioxo-3,4-dihydro-2H-pyrimidin-1-yl)-2-methoxy-phenyl]-vinyl}-N-(1,1-dioxo-tetrahydro-1lambda*6*-thiophen-3-yl)-5-methanesulfonylamino-N-methyl-benzamide] gave an EC50 [1] of 10 to 100 nM and an EC50 [2] of 10 to 100 nM.
`COc1c(/C=C/c2ccc(NS(C)(=O)=O)cc2)cc(-n2cc(Cl)c(=O)[nH]c2=O)cc1C(C)(C)C` [IB-L1-1.20, N-(4-{(E)-2-[3-tert-butyl-5-(5-chloro-2,4-dioxo-3,4-dihydro-2H-pyrimidin-1-yl)-2-methoxy-phenyl]-vinyl}-phenyl)-methanesulfonamide] was tested, and the EC50 [1] was < 10 nM and the EC50 [2] was 10 to 100 nM.
For `COc1c(/C=C/c2ccc(NS(C)(=O)=O)cc2C=NO)cc(-n2ccc(=O)[nH]c2=O)cc1C(C)(C)C` [IB-L1-1.8, N-(4-{(E)-2-[3-tert-Butyl-5-(2,4-dioxo-3,4-dihydro-2H-pyrimidin-1-yl)-2-methoxy-phenyl]-vinyl}-3-(hydroxyimino-methyl)-phenyl)-methanesulfonamide], the EC50 [1] was < 10 nM and the EC50 [2] was 10 to 100 nM.
With `COc1ccc2cc(-c3cc(-n4ccc(=O)[nH]c4=O)cc(C(C)(C)C)c3OC)ccc2c1` [IB-L0-2.2, 1-(3-tert-butyl-4-methoxy-5-(6-methoxynaphthalen-2-yl)phenyl)pyrimidine-2,4(1H,3H)-dione] the EC50 [1] was > 1000 nM and the EC50 [2] was > 1000 nM.
In the case of `COc1c(/C=C/c2ccc(N)cc2)cc(N2CCC(=O)NC2=O)cc1C(C)(C)C` [IA-L1-1.13, (E)-1-(3-(4-aminostyryl)-5-tert-butyl-4-methoxyphenyl)dihydropyrimidine-2,4(1H,3H)-dione], the EC50 [1] is reported as 100 to 1000 nM and the EC50 [2] is reported as > 1000 nM.
With `COC(=O)c1cc(NS(C)(=O)=O)ccc1/C=C/c1cc(-n2ccc(=O)[nH]c2=O)cc(C(C)(C)C)c1OC` [IB-L1-1.7, (K)-methyl 2-(3-tert-butyl-5-(2,4-dioxo-3,4-dihydropyrimidin-1(2H)-yl)-2-methoxystyryl)-5-(methylsulfonamido)benzoate] the EC50 [1] was < 10 nM and the EC50 [2] was < 10 nM.
`COc1c(/C=C/c2ccc(NS(C)(=O)=O)cc2)cc(-n2ccc(=O)[nH]c2=O)cc1-c1cccs1` [IB-L1-1.48, (E)-N-(4-(5-(2,4-dioxo-3,4-dihydropyrimidin-1(2H)-yl)-2-methoxy-3-(thiophen-2-yl)styryl)phenyl)methanesulfonamide] was tested, and the EC50 [1] was < 10 nM and the EC50 [2] was 100 to 1000 nM.
For `COc1c(/C=C(\Cl)c2ccc(NS(C)(=O)=O)cc2)cc(N2CCC(=O)NC2=O)cc1C(C)(C)C` [IA-L1-1.3, (Z)—N-(4-(2-(3-tert-butyl-5-(2,4-dioxotetrahydropyrimidin-1(2H)-yl)-2-methoxyphenyl)-1-chlorovinyl)phenyl)methanesulfonamide], the EC50 [1] was < 10 nM and the EC50 [2] was 10 to 100 nM.
With `COc1c(/C=C/c2ccc(NS(C)(=O)=O)cc2CO)cc(-n2ccc(=O)[nH]c2=O)cc1C(C)(C)C` [IB-L1-1.10, (E)-N-(4-(3-tert-butyl-5-(2,4-dioxo-3,4-dihydropyrimidin-1(2H)-yl)-2-methoxystyryl)-3-(hydroxymethyl)phenyl)methanesulfonamide] the EC50 [1] was < 10 nM and the EC50 [2] was < 10 nM.
With `COc1c(/C=C/c2ccc(NS(C)(=O)=O)cc2N)cc(-n2ccc(=O)[nH]c2=O)cc1C(C)(C)C` [IB-L1-1.28, (E)-N-(3-amino-4-(3-tert-butyl-5-(2,4-dioxo-3,4-dihydropyrimidin-1(2H)-yl)-2-methoxystyryl)phenyl)methanesulfonamide] the EC50 [1] was < 10 nM and the EC50 [2] was < 10 nM.
`COc1c(-c2cccc(Cl)c2)cc(-n2ccc(=O)[nH]c2=O)cc1-c1ccc2cc(NS(C)(=O)=O)ccc2c1` [IB-L0-2.74, N-(6-(3′-chloro-5-(2,4-dioxo-3,4-dihydropyrimidin-1(2H)-yl)-2-methoxybiphenyl-3-yl)naphthalen-2-yl)methanesulfonamide] was tested, and the EC50 [1] was 100 to 1000 nM and the EC50 [2] was > 1000 nM.
With `COc1ccc(/C=C/c2cc(N3CCC(=O)NC3=O)cc(C(C)(C)C)c2OC)cc1` [IA-L1-1.14, (E)-1-(3-tert-butyl-4-methoxy-5-(4-methoxystyryl)phenyl) dihydropyrimidine-2,4(1H,3H)-dione] the EC50 [1] was > 1000 nM and the EC50 [2] was > 1000 nM.
In the case of `COc1c(I)cc(-n2ccc(=O)[nH]c2=O)cc1/C=C/c1ccc(NS(C)(=O)=O)cc1` [IB-L1-1.51, (E)-N-(4-(5-(2,4-dioxo-3,4-dihydropyrimidin-1(2H)-yl)-3-iodo-2-methoxystyryl)phenyl)methanesulfonamide], the EC50 [1] is reported as 10 to 100 nM and the EC50 [2] is reported as > 1000 nM.
For `COc1c(/C=C/c2ccc(NS(C)(=O)=O)cc2C(=O)N2CCOCC2)cc(-n2ccc(=O)[nH]c2=O)cc1C(C)(C)C` [IB-L1-1.23, (E)-N-(4-(3-tert-butyl-5-(2,4-dioxo-3,4-dihydropyrimidin-1(2H)-yl)-2-methoxystyryl)-3-(morpholine-4-carbonyl)phenyl)methanesulfonamide], the EC50 [1] was < 10 nM and the EC50 [2] was 100 to 1000 nM.
For `COc1c(/C=C/c2ccc(NS(C)(=O)=O)cc2)cc(-n2ccc(=O)[nH]c2=O)cc1-c1ccco1` [IB-L1-1.46, (E)-N-(4-(5-(2,4-dioxo-3,4-dihydropyrimidin-1(2H)-yl)-3-(furan-2-yl)-2-methoxystyryl)phenyl)methanesulfonamide], the EC50 [1] was < 10 nM and the EC50 [2] was 100 to 1000 nM.
With `COc1c(-c2ccc3c(c2)/C(=N/NS(C)(=O)=O)CC3)cc(-n2ccc(=O)[nH]c2=O)cc1-c1ccco1` [IB-L0-2.55, (E)-N′-(6-(5-(2,4-dioxo-3,4-dihydropyrimidin-1(2H)-yl)-3-(furan-2-yl)-2-methoxyphenyl)-2,3-dihydro-1H-inden-1-ylidene)methanesulfonohydrazide] the EC50 [1] was < 10 nM and the EC50 [2] was 10 to 100 nM.
In the case of `COc1c(-c2ccc3c(c2)/C(=N/NS(C)(=O)=O)CC3)cc(-n2ccc(=O)[nH]c2=O)cc1-c1cccs1` [IB-L0-2.51, (E)-N′-(6-(5-(2,4-dioxo-3,4-dihydropyrimidin-1(2H)-yl)-2-methoxy-3-(thiophen-2-yl)phenyl)-2,3-dihydro-1H-inden-1-ylidene)methanesulfonohydrazide], the EC50 [1] is reported as < 10 nM and the EC50 [2] is reported as 10 to 100 nM.
Compound `COc1c(/C=C/c2ccc(NS(C)(=O)=O)cc2)cc(-n2ccc(=O)[nH]c2=O)cc1-c1ccoc1` [IB-L1-1.50, (E)-N-(4-(5-(2,4-dioxo-3,4-dihydropyrimidin-1(2H)-yl)-3-(furan-3-yl)-2-methoxystyryl)phenyl)methanesulfonamide] has an EC50 [1] of 10 to 100 nM and an EC50 [2] of 100 to 1000 nM.
For `CC(C)(C)c1cc(-n2ccc(=O)[nH]c2=O)cc(/C=C/c2ccc(NS(C)(=O)=O)cc2)c1Cl` [IB-L1-1.12, N-(4-{(E)-2-[3-tert-Butyl-2-chloro-5-(2,4-dioxo-3,4-dihydro-2H-pyrimidin-1-yl)-phenyl]-vinyl}-phenyl)-methanesulfonamide], the EC50 [1] was 10 to 100 nM and the EC50 [2] was 10 to 100 nM.
Work on `CC(C)(C)c1cc(CCc2ccc(NS(C)(=O)=O)cc2)cc(N2CCC(=O)NC2=O)c1` [IA-L5-2-1.2, N-(4-(3-tert-butyl-5-(2,4-dioxotetrahydropyrimidin-1(2H)-yl)phenethyl)phenyl)methane sulfonamide] yielded an EC50 [1] of 100 to 1000 nM and an EC50 [2] of 100 to 1000 nM.
In the case of `COCCNC(=O)c1cc(NS(C)(=O)=O)ccc1/C=C/c1cc(-n2ccc(=O)[nH]c2=O)cc(C(C)(C)C)c1OC` [IB-L1-1.9, 2-{(E)-2-[3-tert-Butyl-5-(2,4-dioxo-3,4-dihydro-2H-pyrimidin-1-yl)-2-methoxy-phenyl]-vinyl}-5-methanesulfonylamino-N-(2-methoxy-ethyl)-benzamide], the EC50 [1] is reported as < 10 nM and the EC50 [2] is reported as 10 to 100 nM.
`COc1c(-c2nc3ccc(NS(C)(=O)=O)cc3o2)cc(N2CCC(=O)NC2=O)cc1C(C)(C)C` [IA-L0-2.5, N-(2-(3-tert-butyl-5-(2,4-dioxotetrahydropyrimidin-1(2H)-yl)-2-methoxyphenyl)benzo[d]oxazol-6-yl)methanesulfonamide] was tested, and the EC50 [1] was > 1000 nM and the EC50 [2] was > 1000 nM.
`COc1c(/C=C/c2ccc(NS(C)(=O)=O)cc2)cc(-n2ccc(=O)[nH]c2=O)cc1C(C)(C)C` [IB-L1-1.1, (E)-N-(4-(3-tert-butyl-5-(2,4-dioxo-3,4-dihydropyrimidin-1(2H)-yl)-2-methoxystyryl)phenyl)methanesulfonamide] was tested, and the EC50 [1] was < 10 nM and the EC50 [2] was < 10 nM.
`COc1c(/C=C/c2ccccc2)cc(N2CCC(=O)NC2=O)cc1C(C)(C)C` [IA-L1-1.18, (E)-1-(3-tert-butyl-4-methoxy-5-styrylphenyl)dihydro-pyrimidine-2,4(1H,3H)-dione] gave an EC50 [1] of 100 to 1000 nM and an EC50 [2] of 100 to 1000 nM.
`CC(C)(C)c1cc(-c2ccc3cc(NS(C)(=O)=O)ccc3c2)cc(-n2ccc(=O)[nH]c2=O)c1` [IB-L0-2.8, N-(6-(3-tert-butyl-5-(2,4-dioxo-3,4-dihydropyrimidin-1(2H)-yl)phenyl)naphthalen-2-yl)methanesulfonamide] showed an EC50 [1] of 10 to 100 nM.
For `COc1c(/C=C/c2ccc(NS(C)(=O)=O)cc2)cc(-n2cc(F)c(=O)[nH]c2=O)cc1C(C)(C)C` [IB-L1-1.2, (E)-N-(4-(3-tert-butyl-5-(5-fluoro-2,4-dioxo-3,4-dihydro-pyrimidin-1(2H)-yl)-2-methoxystyryl)phenyl)methanesulfonamide], the EC50 [1] was 10 to 100 nM.
`COc1c(-c2ccc3c(c2)CC/C3=N\NS(C)(=O)=O)cc(-n2ccc(=O)[nH]c2=O)cc1C(C)(C)C` [IB-L0-2.4, (E)-N′-(5-(3-tert-butyl-5-(2,4-dioxo-3,4-dihydropyrimidin-1(2H)-yl)-2-methoxyphenyl)-2,3-dihydro-1H-inden-1-ylidene)methanesulfonohydrazide] was tested, and the EC50 [1] was < 10 nM.
